Values quoted from earlier work as cited in US20150289553A1, “METHOD OF DEVELOPING SAFE AND EFFECTIVE DIETARY SUPPLEMENTS” (priority 2014, published 2015).
Like-named read-outs stand apart in the source and are kept apart here.

Columns and labels:
[1] = for Clinically Effective Dosage Range: daily dosage, adults (18+ yrs.); for Dataset 2 Clinical Efficacy: Table 5, multivitamin/mineral for adult U.S. women
[2] = 600 IU every other day; 39,876 women
[3] = 400 IU/d; 19 trials, 135,967 subjects
[4] = 400 IU every other day for 8 years; 14,641 men
[5] = not given; remark: listed apart in the source
[6] = high intake of supplemental calcium; men
[7] = calcium supplements; almost 24,000 participants
[8] = Table 5, multivitamin/mineral for adult U.S. women
[9] = adults (18+ yrs.), derived from published literature and regulatory files

Row | Compound | Clinically Effective Dosage Range [1] | Dataset 2 Clinical Efficacy [1] | Upper Limits, CRN-listed Nutrients (adults (18+ yrs.)) | Dataset 1 Upper Limits [8] [mg] | also measured
1 | CC1=C(/C=C/C(C)=C/C=C/C(C)=C/C=C/C=C(C)/C=C/C=C(C)/C=C/C2=C(C)C[C@@H](O)CC2(C)C)C(C)(C)C[C@H](O)C1 [Zeaxanthin] | 0.01 to 10 mg |  |  |  | Upper Limits, Other Nutrients (in vivo): 10 mg
2 | [Cu] [Copper] | 0.09 to 8 mg | 0.09 to 8 mg |  |  | Dataset 1 Upper Limits (in vivo): 9 mg; Upper Limits, CRN-listed Nutrients (in vivo): 9 mg
3 | O=C(O)c1cccnc1 [Nicotinic Acid] | 1.6-3,000 mg |  | 250 mg |  | 
4 | O=C1O[C@H]([C@@H](O)CO)C(O)=C1O [Vitamin C, ascorbic acid] | 9-10,000 mg | 9 to 10000 mg |  |  | 
5 | [P] [Phosphorus] | 125-2,000 mg |  | 1,500 mg |  | 
6 | CC1=C(/C=C/C(C)=C/C=C/C(C)=C/CO)C(C)(C)CCC1 [Vitamin A (retinol and its esters), retinol] | 90-3,300 mcg | 0.09 to 3.3 mg |  |  | Dataset 1 Upper Limits (in vivo): 1.5 mg; Upper Limits, CRN-listed Nutrients (in vivo): 1,500 mcg
7 | Cc1c(C)c2c(c(C)c1O)CC[C@@](C)(CCC[C@H](C)CCC[C@H](C)CCCC(C)C)O2 [Vitamin E, RRR-alpha-tocopherol] | 1.5-1,342 mg | 1.5 to 1342 mg |  | 1000 | effects on cardiovascular health or cancer prevention [2]: no effects; mortality [3]: increased mortality; risk for cardiovascular disease [4]: did not reduce the risk; UL (Upper Limit) (healthy US adults, Embodiment 1): 1,000 mg
8 | Cc1ncc(CO)c(CO)c1O [Vitamin B6 (pyridoxine), pyridoxine] | 0.17 to 200 mg | 0.17 to 200 mg | 100 mg | 100 | 
9 | Nc1nc2ncc(CNc3ccc(C(=O)N[C@@H](CCC(=O)O)C(=O)O)cc3)nc2c(=O)[nH]1 [Folic Acid] | 40-5,000 mcg | 0.04 to 5 mg |  |  | bioavailability ([5]; folic acid in supplements versus folic acid in foods (folates)): higher bioavailability
10 | [K+] [Potassium] | 470-5,000 mg |  | 1,500 mg |  | 
11 | [O]=[Mg] [magnesium oxide] |  |  |  |  | bioavailability ([5]; versus most organic magnesium salts or chelates (citrate, malate, glycinate)): lower bioavailability
12 | C[N+](C)(C)CCO [Choline] |  |  |  |  | Upper Limits, Other Nutrients [9]: 3,500 mg
13 | C=C1CC[C@H](O)C/C1=C/C=C1\CCC[C@]2(C)[C@@H]([C@H](C)CCCC(C)C)CC[C@@H]12 [Vitamin D, cholecalciferol] | 0.002 to 0.25 mg | 0.002 to 0.25 mg |  |  | 
14 | [Se] [Selenium] | 0.0055 to 0.2 mg | 5.5-200^ mcg |  |  | Dataset 1 Upper Limits (in vivo): 0.2 mg; Upper Limits, CRN-listed Nutrients (in vivo): 0.2 mg
15 | [Mg+2] [Magnesium] | 42-1,200 mg | 42 to 1200 mg | 400 mg | 400 | 
16 | Vitamin K | 12-1,000 mcg |  |  |  | Upper Limits, CRN-listed Nutrients (in vivo): 10 mg
17 | CC1=CCCC(C)(C)C1/C=C/C(C)=C/C=C/C(C)=C/C=C/C=C(C)/C=C/C=C(C)/C=C/C1=C(C)CCCC1(C)C (stereo not drawn) [Alpha-Carotene] | 0.01 to 5 mg |  |  |  | Upper Limits, Other Nutrients [9]: 8.3 mg

Row | Compound | Clinically Effective Dosage Range [1] | Dataset 2 Clinical Efficacy [1] | Upper Limits, CRN-listed Nutrients (adults (18+ yrs.)) | Dataset 1 Upper Limits [8] [mg] | also measured
18 | CC(C)=CCC/C(C)=C/C=C/C(C)=C/C=C/C(C)=C/C=C/C=C(C)/C=C/C=C(C)/C=C/C=C(\C)CCC=C(C)C [Lycopene] | 0.2 to 30 mg |  |  |  | Upper Limits, Other Nutrients [9]: 11.3 mg
19 | [Mo] [Molybdenum] | 0.0045 to 0.467 mg |  |  |  | Upper Limits, CRN-listed Nutrients (in vivo): 0.35 mg
20 | CC/C=C\C/C=C\C/C=C\CCCCCCCC(=O)O [Alpha-Linolenic Acid] |  |  |  |  | Upper Limits, Other Nutrients (in vivo): 25000 mg
21 | [O-2].[Zn+2] [Zinc] | 1.1 to 80 mg | 1.1 to 80 mg | 30 mg | 30 | 
22 | CC1=C(/C=C/C(C)=C/C=C/C(C)=C/C=C/C=C(C)/C=C/C=C(C)/C=C/C2=C(C)CCCC2(C)C)C(C)(C)CCC1 [Beta-Carotene] | 1 to 180 mg |  |  |  | Upper Limits, CRN-listed Nutrients (adults (18+ yrs.), non-smokers): 25 mg
23 | [Fe] [Iron] | 1.8 to 120 mg | 125 to 2000 mg |  |  | Dataset 1 Upper Limits (in vivo): 60 mg; Upper Limits, CRN-listed Nutrients (in vivo): 60 mg
24 | NC(=O)c1cccnc1 [Nicotinamide] | 1.6-3,000 mg | 1.6 to 3000 mg | 1,500 mg | 1500 | 
25 | [B] [Boron] | 0.2 to 11.6 mg |  |  |  | Upper Limits, CRN-listed Nutrients (in vivo): 6 mg
26 | [Mn+2] [Manganese] | 0.23 to 30 mg | 0.23 to 30 mg | 10 mg | 10 | 
27 | CC1=C[C@H](O)CC(C)(C)[C@H]1/C=C/C(C)=C/C=C/C(C)=C/C=C/C=C(C)/C=C/C=C(C)/C=C/C1=C(C)C[C@@H](O)CC1(C)C [Lutein] | 0.1 to 20 mg | 0.1 to 20 mg |  |  | Dataset 1 Upper Limits (in vivo): 17.6 mg; Upper Limits, Other Nutrients (in vivo): 17.6 mg
28 | O=C(O)CCCC[C@@H]1SC[C@@H]2NC(=O)N[C@@H]21 [Biotin] | 3-15,000 mcg | 0.003 to 15 mg | 2,500 mcg | 2.5 | 
29 | [Cr] [Chromium] | 3.5-1,000 mcg | 0.0035 to 1 mg | 1,000 mcg | 1 | 
30 | Cc1ncc(C[n+]2csc(CCO)c2C)c(N)n1 [Vitamin B1 (thiamin), thiamin] | 0.12-1,000 mg | 0.12-1000^ mg | 100 mg | 100 | 
31 | CC1=C(/C=C/C(C)=C/C=C/C(C)=C/C=C/C=C(C)/C=C/C=C(C)/C=C/C2=C(C)C(=O)[C@@H](O)CC2(C)C)C(C)(C)C[C@H](O)C1=O [Astaxanthin] | 4 to 100 mg |  |  |  | Upper Limits, Other Nutrients (in vivo): 5.3 mg
32 | [Ca+2] [Calcium] | 130-2,000 mg | 130 to 2000 mg | 1,500 mg | 1500 | risk of cardiovascular disease death [6]: associated with an excess risk of cardiovascular disease death; risk of myocardial infarction [7]: raised the risk of myocardial infarction
33 | cyanocobalamin [Vitamin B12] | 0.24-2,500 mcg | 0.24-2500^ mcg |  |  | Dataset 1 Upper Limits (in vivo): 3 mg; Upper Limits, CRN-listed Nutrients (in vivo): 3,000 mcg
